SMILES strings stand for the structures.

Common to all, as to assay type: functional, cell-based
Holding throughout (details): Mus musculus

The test system of one experiment is B16. The experiment can be described thus: In vitro inhibitory activity against B16 melanoma cell lines.
The next experiment concerns L1210. Kind of experiment: In vitro inhibitory activity against leukemia L1210 cell lines.
Experiment [1] relates to Lewis lung carcinoma cell line. Kind of experiment: In vitro inhibitory activity against lewis lung cell lines.

Consider `C#Cc1cc(O)nc(O)n1`, for which the Concentration with B16 amounted to 10 µM; in the experiment with L1210 it was 7 µM; in experiment [1], 20 µM.

Take `Oc1cc(/C=C/C(Br)Br)nc(O)n1`: the Concentration stood at 1 µM in the experiment on B16, 1 µM in the experiment on L1210 and 8 µM in experiment [1].

These data come from ChEMBL document CHEMBL1121961, “Synthesis and biological evaluation of 6-ethynyluracil, a thiol-specific alkylating pyrimidine” (J Med Chem, 1982).
